Laboratory results: ChEMBL document CHEMBL3885861, “Open TG-GATES”

Species on record: Rattus norvegicus
Assay: Open TG-GATES - Regimen: Daily Repeat
Assay type: toxicity, organism-based, Sprague-Dawley
Set-up: regimen Daily Repeat, gender Male, age 6 weeks
Settings: in vivo, po, 250 mg/kg, route gavage, dose level High; for APTT / Bas / Eos / Fbg / Hb / Ht / Lym / MCH / MCHC / MCV / Mono / Neu / PT / Plat / RBC / Ret / WBC: tissue Blood; for KIDNEY_L / KIDNEY_R / KIDNEY_TOTAL: tissue Kidney; for LIVER: tissue Liver; for ALP / ALT / AST / BUN / CRE / DBIL / GLC / K / Na / PL / RALB / TBIL / TC / TG / TP / gamma-GTP: tissue Plasma

## CN1C(=O)CN=C(c2ccccc2)c2cc(Cl)ccc21 [DIAZEPAM]
72 h, time 3 day
  TERMINAL_BW: 237.9 g
  APTT: 16.2 s
  Bas: 0%
  Eos: 1%
  Fbg: 230.6 mg/dL
  Hb: 14 g/dL
  Ht: 42%
  Lym: 78.8%
  MCH: 21.5 pg
  MCHC: 33.3%
  MCV: 64.8 fL
  Mono: 6.2%
  Neu: 14.2%
  PT: 11.6 s
  Plat: 103.3 x10_4/uL
  RBC: 648.4 x10_4/ul
  Ret: 5.6%
  WBC: 126.1 x10_2/uL
  KIDNEY_L: 1.1 g
  KIDNEY_R: 1.1 g
  KIDNEY_TOTAL: 2.1 g
  LIVER: 12.6 g
  ALP: 891.8 IU/L
  ALT: 47.4 IU/L
  AST: 68.8 IU/L
  BUN: 17.2 mg/dL
  CRE: 0.6 mg/dL
  DBIL: 0.024 mg/dL
  GLC: 201.4 mg/dL
  K: 4.8 meq/L
  Na: 138.9 meq/L
  PL: 173.6 mg/dL
  RALB: 3.8 g/dL
  TBIL: 0.3 mg/dL
  TC: 113.4 mg/dL
  TG: 59.8 mg/dL
  TP: 5.9 g/dL
  gamma-GTP: 1.8 IU/L
[…], time 7 day
  TERMINAL_BW: 268.4 g
  APTT: 17.2 s
  Bas: 0%
  Eos: 1.2%
  Fbg: 211.8 mg/dL
  Hb: 13.7 g/dL
  Ht: 40.8%
  Lym: 76.6%
  MCH: 21.6 pg
  MCHC: 33.5%
  MCV: 64.6 fL
  Mono: 6%
  Neu: 16.6%
  PT: 11.6 s
  Plat: 128 x10_4/uL
  RBC: 633.8 x10_4/ul
  Ret: 5.9%
  WBC: 144 x10_2/uL
  KIDNEY_L: 1.2 g
  KIDNEY_R: 1.2 g
  KIDNEY_TOTAL: 2.4 g
  LIVER: 14.5 g
  ALP: 732.8 IU/L
  ALT: 35.4 IU/L
  AST: 64.8 IU/L
  BUN: 17.2 mg/dL
  CRE: 0.6 mg/dL
  DBIL: 0.008 mg/dL
  GLC: 194.4 mg/dL
  K: 4.5 meq/L
  Na: 139.1 meq/L
  PL: 133.4 mg/dL
  RALB: 3.9 g/dL
  TBIL: 0.3 mg/dL
  TC: 78 mg/dL
  TG: 35.4 mg/dL
  TP: 6.1 g/dL
  gamma-GTP: 1 IU/L
[…], time 14 day
  TERMINAL_BW: 309.4 g
  APTT: 18.5 s
  Bas: 0%
  Eos: 0.8%
  Fbg: 245.8 mg/dL
  Hb: 14.6 g/dL
  Ht: 43.8%
  Lym: 79%
  MCH: 20.6 pg
  MCHC: 33.4%
  MCV: 61.8 fL
  Mono: 4.6%
  Neu: 15.6%
  PT: 11.9 s
  Plat: 106.7 x10_4/uL
  RBC: 709.4 x10_4/ul
  Ret: 4.3%
  WBC: 144 x10_2/uL
  KIDNEY_L: 1.3 g
  KIDNEY_R: 1.4 g
  KIDNEY_TOTAL: 2.7 g
  LIVER: 16.6 g
  ALP: 735.2 IU/L
  ALT: 37.8 IU/L
  AST: 54.2 IU/L
  BUN: 17.6 mg/dL
  CRE: 0.6 mg/dL
  DBIL: 0.01 mg/dL
  GLC: 193.6 mg/dL
  K: 4.6 meq/L
  Na: 142 meq/L
  PL: 145.4 mg/dL
  RALB: 4.1 g/dL
  TBIL: 0.2 mg/dL
  TC: 78.8 mg/dL
  TG: 48 mg/dL
  TP: 6.4 g/dL
  gamma-GTP: 1.6 IU/L
[…], time 28 day
  TERMINAL_BW: 402.6 g
  APTT: 20.2 s
  Bas: 0%
  Eos: 1%
  Fbg: 252 mg/dL
  Hb: 15.4 g/dL
  Ht: 45.8%
  Lym: 81.4%
  MCH: 19.7 pg
  MCHC: 33.6%
  MCV: 58.5 fL
  Mono: 4.2%
  Neu: 13.4%
  PT: 12.2 s
  Plat: 109.3 x10_4/uL
  RBC: 782.2 x10_4/ul
  Ret: 3%
  WBC: 179.4 x10_2/uL
  KIDNEY_L: 1.6 g
  KIDNEY_R: 1.6 g
  KIDNEY_TOTAL: 3.2 g
  LIVER: 19.7 g
  ALP: 448.2 IU/L
  ALT: 35 IU/L
  AST: 53.6 IU/L
  BUN: 19 mg/dL
  CRE: 0.6 mg/dL
  DBIL: 0.012 mg/dL
  GLC: 195.4 mg/dL
  K: 4.1 meq/L
  Na: 140.5 meq/L
  PL: 135.4 mg/dL
  RALB: 4.3 g/dL
  TBIL: 0.3 mg/dL
  TC: 73.4 mg/dL
  TG: 48 mg/dL
  TP: 6.8 g/dL
  gamma-GTP: 0.8 IU/L
